Assay results published in ChEMBL document CHEMBL1148029, “Synthesis and radiopharmacological characterization of 2beta-carbo-2'-[18F]fluoroethoxy-3beta-(4-bromo-phenyl)tropane ([18F]MCL-322) as a PET radiotracer for imaging the dopamine transporter (DAT)” (Bioorg Med Chem, 2007).

Legend:
Pancreas [1] = assay: Biodistribution in Wistar rat pancreas at 300 uCi, iv after 120 mins; assay type: ADME, organism-based; details: in vivo, 2 h
[2] = Biodistribution in Wistar rat rest of brain at 300 uCi, iv after 240 mins; assay type: ADME, organism-based; details: in vivo, 4 h
Adrenal [3] = assay: Biodistribution in Wistar rat adrenal gland at 300 uCi, iv after 20 mins; assay type: ADME, organism-based, Adrenal tissue; details: in vivo
Liver [4] = assay: Biodistribution in Wistar rat liver at 300 uCi, iv after 240 mins; assay type: ADME, organism-based; details: in vivo, 4 h
Blood [5] = assay: Biodistribution in Wistar rat blood at 300 uCi, iv after 20 mins; assay type: ADME, organism-based; details: in vivo
Cerebellum [6] = assay: Biodistribution in Wistar rat cerebellum at 300 uCi, iv after 20 mins; assay type: ADME, organism-based; details: in vivo
Pancreas [7] = assay: Biodistribution in Wistar rat pancreas at 300 uCi, iv after 20 mins; assay type: ADME, organism-based; details: in vivo
Spleen [8] = assay: Biodistribution in Wistar rat spleen at 300 uCi, iv after 60 mins; assay type: ADME, organism-based; details: in vivo, 1 h
Striatum [9] = assay: Biodistribution in Wistar rat striatum at 300 uCi, iv after 20 mins; assay type: ADME, organism-based; details: in vivo
Adrenal [10] = assay: Biodistribution in Wistar rat adrenal gland at 300 uCi, iv after 120 mins; assay type: ADME, organism-based, Adrenal tissue; details: in vivo, 2 h
Heart [11] = assay: Biodistribution in Wistar rat heart at 300 uCi, iv after 5 mins; assay type: ADME, organism-based; details: in vivo
Blood [12] = assay: Biodistribution in Wistar rat blood at 300 uCi, iv after 60 mins in presence of GBR-12909; assay type: ADME, organism-based; details: in vivo, 1 h
Spleen [13] = assay: Biodistribution in Wistar rat spleen at 300 uCi, iv after 20 mins; assay type: ADME, organism-based; details: in vivo
Cerebellum [14] = assay: Biodistribution in Wistar rat cerebellum at 300 uCi, iv after 60 mins in presence of nisoxetine; assay type: ADME, organism-based; details: in vivo, 1 h
Kidney [15] = assay: Biodistribution in Wistar rat kidney at 300 uCi, iv after 240 mins; assay type: ADME, organism-based; details: in vivo, 4 h
Muscle tissue [16] = assay: Biodistribution in Wistar rat muscle at 300 uCi, iv after 60 mins; assay type: ADME, organism-based; details: in vivo, 1 h
Blood [17] = assay: Biodistribution in Wistar rat blood at 300 uCi, iv after 5 mins; assay type: ADME, organism-based; details: in vivo
[18] = Biodistribution in Wistar rat brown fat at 300 uCi, iv after 120 mins; assay type: ADME, organism-based, Brown adipose tissue; details: in vivo, 2 h
Lung [19] = assay: Biodistribution in Wistar rat lung at 300 uCi, iv after 5 mins; assay type: ADME, organism-based; details: in vivo
Blood [20] = assay: Biodistribution in Wistar rat blood at 300 uCi, iv after 60 mins in presence of nisoxetine; assay type: ADME, organism-based; details: in vivo, 1 h
Lung [21] = assay: Biodistribution in Wistar rat lung at 300 uCi, iv after 20 mins; assay type: ADME, organism-based; details: in vivo
Hippocampus [22] = assay: Biodistribution in Wistar rat hippocampus at 300 uCi, iv after 60 mins in presence of citalopram; assay type: ADME, organism-based; details: in vivo, 1 h
Brain = assay: Biodistribution in Wistar rat rest of brain at 300 uCi, iv after 60 mins in presence of GBR-12909; assay type: ADME, organism-based; details: in vivo, 1 h
[23] = Biodistribution in Wistar rat fat at 300 uCi, iv after 5 mins; assay type: ADME, organism-based, Adipose tissue; details: in vivo
Heart [24] = assay: Biodistribution in Wistar rat heart at 300 uCi, iv after 20 mins; assay type: ADME, organism-based; details: in vivo
[25] = Metabolic stability in Wistar rat striatum at 1 mCi, iv after 60 mins; assay type: ADME, organism-based; details: read-out: Stability
Cerebellum [26] = assay: Biodistribution in Wistar rat cerebellum at 300 uCi, iv after 60 mins in presence of citalopram; assay type: ADME, organism-based; details: in vivo, 1 h
[27] = Biodistribution in Wistar rat rest of brain at 300 uCi, iv after 5 mins; assay type: ADME, organism-based; details: in vivo
Femur [28] = assay: Biodistribution in Wistar rat femur at 300 uCi, iv after 240 mins; assay type: ADME, organism-based; details: in vivo, 4 h
Harderian gland [29] = assay: Biodistribution in Wistar rat harderian glands at 300 uCi, iv after 20 mins; assay type: ADME, organism-based; details: in vivo
Cortex [30] = assay: Biodistribution in Wistar rat cortex at 300 uCi, iv after 60 mins in presence of nisoxetine; assay type: ADME, organism-based; details: in vivo, 1 h
Plasma [31] = assay: Metabolic stability in Wistar rat plasma assessed as polar metabolite level at 1 mCi, iv after 240 mins; assay type: ADME, organism-based; details: in vivo, 4 h
Cerebellum [32] = assay: Biodistribution in Wistar rat cerebellum at 300 uCi, iv after 5 mins; assay type: ADME, organism-based; details: in vivo
Harderian gland [33] = assay: Biodistribution in Wistar rat harderian glands at 300 uCi, iv after 5 mins; assay type: ADME, organism-based; details: in vivo
Plasma [34] = assay: Metabolic stability in Wistar rat plasma assessed as polar metabolite level at 1 mCi, iv after 30 mins; assay type: ADME, organism-based; details: in vivo, 0.5 h
Pancreas [35] = assay: Biodistribution in Wistar rat pancreas at 300 uCi, iv after 60 mins; assay type: ADME, organism-based; details: in vivo, 1 h
Harderian gland [36] = assay: Biodistribution in Wistar rat harderian glands at 300 uCi, iv after 240 mins; assay type: ADME, organism-based; details: in vivo, 4 h
Cortex [37] = assay: Biodistribution in Wistar rat cortex at 300 uCi, iv after 60 mins; assay type: ADME, organism-based; details: in vivo, 1 h
Thymus = assay: Biodistribution in Wistar rat thymus at 300 uCi, iv after 240 mins; assay type: ADME, organism-based; details: in vivo, 4 h
Plasma [38] = assay: Metabolic stability in Wistar rat plasma assessed as polar metabolite level at 1 mCi, iv after 5 mins; assay type: ADME, organism-based; details: in vivo
Striatum [39] = assay: Biodistribution in Wistar rat striatum at 300 uCi, iv after 60 mins; assay type: ADME, organism-based; details: in vivo, 1 h
Plasma [40] = assay: Metabolic stability in Wistar rat plasma assessed as polar metabolite level at 1 mCi, iv after 60 mins; assay type: ADME, organism-based; details: in vivo, 1 h
Kidney [41] = assay: Biodistribution in Wistar rat kidney at 300 uCi, iv after 120 mins; assay type: ADME, organism-based; details: in vivo, 2 h
Muscle tissue [42] = assay: Biodistribution in Wistar rat muscle at 300 uCi, iv after 120 mins; assay type: ADME, organism-based; details: in vivo, 2 h
Adrenal [43] = assay: Biodistribution in Wistar rat adrenal gland at 300 uCi, iv after 240 mins; assay type: ADME, organism-based, Adrenal tissue; details: in vivo, 4 h
Heart [44] = assay: Biodistribution in Wistar rat heart at 300 uCi, iv after 120 mins; assay type: ADME, organism-based; details: in vivo, 2 h
Pancreas [45] = assay: Biodistribution in Wistar rat pancreas at 300 uCi, iv after 5 mins; assay type: ADME, organism-based; details: in vivo
Striatum [46] = assay: Biodistribution in Wistar rat striatum at 300 uCi, iv after 120 mins; assay type: ADME, organism-based; details: in vivo, 2 h
Spleen [47] = assay: Biodistribution in Wistar rat spleen at 300 uCi, iv after 5 mins; assay type: ADME, organism-based; details: in vivo
[48] = Biodistribution in Wistar rat fat at 300 uCi, iv after 240 mins; assay type: ADME, organism-based, Adipose tissue; details: in vivo, 4 h
Liver [49] = assay: Biodistribution in Wistar rat liver at 300 uCi, iv after 120 mins; assay type: ADME, organism-based; details: in vivo, 2 h
Liver [50] = assay: Biodistribution in Wistar rat liver at 300 uCi, iv after 5 mins; assay type: ADME, organism-based; details: in vivo
Striatum [51] = assay: Biodistribution in Wistar rat striatum at 300 uCi, iv after 240 mins; assay type: ADME, organism-based; details: in vivo, 4 h
Blood [52] = assay: Biodistribution in Wistar rat blood at 300 uCi, iv after 60 mins; assay type: ADME, organism-based; details: in vivo, 1 h
Liver [53] = assay: Biodistribution in Wistar rat liver at 300 uCi, iv after 20 mins; assay type: ADME, organism-based; details: in vivo
Femur [54] = assay: Biodistribution in Wistar rat femur at 300 uCi, iv after 5 mins; assay type: ADME, organism-based; details: in vivo
Cortex [55] = assay: Biodistribution in Wistar rat cortex at 300 uCi, iv after 5 mins; assay type: ADME, organism-based; details: in vivo
Testes = assay: Biodistribution in Wistar rat testes at 300 uCi, iv after 20 mins; assay type: ADME, organism-based, Testis; details: in vivo
Cortex [56] = assay: Biodistribution in Wistar rat cortex at 300 uCi, iv after 240 mins; assay type: ADME, organism-based; details: in vivo, 4 h
Kidney [57] = assay: Biodistribution in Wistar rat kidney at 300 uCi, iv after 60 mins; assay type: ADME, organism-based; details: in vivo, 1 h
Hippocampus [58] = assay: Biodistribution in Wistar rat hippocampus at 300 uCi, iv after 60 mins in presence of GBR-12909; assay type: ADME, organism-based; details: in vivo, 1 h

CN1C2CCC1C(C(=O)OCC[18F])C(c1ccc(Br)cc1)C2 (stereo unspecified)
Drug uptake (Pancreas [1]): 0.29 % ID/g
Drug uptake [2]: 0.27 % ID/g
Drug uptake (Adrenal [3]): 1.21 % ID/g
Drug uptake (Liver [4]): 15.2 % ID/g
Drug uptake (Blood [5]): 0.07 % ID/g
Drug uptake (Cerebellum [6]): 1.37 % ID/g
Drug uptake (Pancreas [7]): 1.23 % ID/g
Drug uptake (Spleen [8]): 0.58 % ID/g
Drug uptake (Striatum [9]): 3.93 % ID/g
Drug uptake (Adrenal [10]): 0.35 % ID/g
Drug uptake (Heart [11]): 1.09 % ID/g
Drug uptake (Blood [12]): 0.04 % ID/g
Drug uptake (Spleen [13]): 1.41 % ID/g
Drug uptake (Cerebellum [14]): 0.63 % ID/g
Drug uptake (Kidney [15]): 0.83 % ID/g
Drug uptake (Muscle tissue [16]): 0.16 % ID/g
Drug uptake (Blood [17]): 0.16 % ID/g
Drug uptake [18]: 0.21 % ID/g
Drug uptake (Lung [19]): 6.53 % ID/g
Drug uptake (Blood [20]): 0.04 % ID/g
Drug uptake (Lung [21]): 2.58 % ID/g
Drug uptake (Hippocampus [22]): 1.36 % ID/g
Drug uptake (Brain): 1.07 % ID/g
Drug uptake [23]: 4.64 % ID/g
Drug uptake (Heart [24]): 0.48 % ID/g
remaining at 1 h [25]: > 90%
Drug uptake (Cerebellum [26]): 0.71 % ID/g
Drug uptake [27]: 2.53 % ID/g
Drug uptake (Femur [28]): 0.07 % ID/g
Drug uptake (Harderian gland [29]): 2.04 % ID/g
Drug uptake (Cortex [30]): 0.96 % ID/g
Stability (Plasma [31]): > 98%
Drug uptake (Cerebellum [32]): 1.77 % ID/g
Drug uptake (Harderian gland [33]): 1.46 % ID/g
Stability (Plasma [34]): 76%
Drug uptake (Pancreas [35]): 0.54 % ID/g
Drug uptake (Harderian gland [36]): 0.93 % ID/g
Drug uptake (Cortex [37]): 1 % ID/g
Drug uptake (Thymus): 0.08 % ID/g
Stability (Plasma [38]): 42%
Drug uptake (Striatum [39]): 3.71 % ID/g
Stability (Plasma [40]): 85%
Drug uptake (Kidney [41]): 1.84 % ID/g
Drug uptake (Muscle tissue [42]): 0.09 % ID/g
Drug uptake (Adrenal [43]): 0.17 % ID/g
Drug uptake (Heart [44]): 0.12 % ID/g
Drug uptake (Pancreas [45]): 2.09 % ID/g
Drug uptake (Striatum [46]): 0.39 % ID/g
Drug uptake (Spleen [47]): 1.51 % ID/g
Drug uptake [48]: 0.06 % ID/g
Drug uptake (Liver [49]): 15.7 % ID/g
Drug uptake (Liver [50]): 3.2 % ID/g
Drug uptake (Striatum [51]): 2.45 % ID/g
Drug uptake (Blood [52]): 0.025 % ID/g
Drug uptake (Liver [53]): 6.8 % ID/g
Drug uptake (Femur [54]): 0.59 % ID/g
Drug uptake (Cortex [55]): 3.19 % ID/g
Drug uptake (Testes): 0.45 % ID/g
Drug uptake (Cortex [56]): 0.14 % ID/g
Drug uptake (Kidney [57]): 3.1 % ID/g
Drug uptake (Hippocampus [58]): 1.06 % ID/g
